Reference: patent US4582822A, “Antibiotic A80190, pharmaceutical compositions containing same and method of use” (Eli Lilly and Company, priority 1984, dated 1986)
Where a SMILES comes first, the peptide text is derived from it. Bridges are numbered along the chain shown (N, C = ends). [ ]: non-standard residue; d: D form. The star is where a group is joined. Ileψ(thiazoline)Cys = CC[C@H](C)[C@H](N)C1=N[C@H](C(=O)*)CS1; dOrn = NCCC[C@@H](N)C(=O)O

How the values were obtained:
NRRL 15878 = assay: Resistance to antibiotics, sensitivity discs on seeded agar; format: cell-based, Actinomadura oligospora
Experimental: (§1) Resistance to antibiotics was measured by padding antibiotic sensitivity discs onto the surface of seeded ISP No. 2 agar plates.
(§2) Table III lists the resistance of the strain to various antibiotics at the concentrations indicated and compares it to that of A. macra.

A. macra = assay: as above; format: cell-based, Actinomadura macra
Experimental: as §1, §2

## CC[C@H](C)[C@H](N)C1=N[C@H](C(=O)N[C@@H](CC(C)C)C(=O)N[C@H](CCC(=O)O)C(=O)N[C@H](C(=O)N[C@H]2CCCCNC(=O)[C@H](CC(N)=O)NC(=O)[C@@H](CC(=O)O)NC(=O)[C@H](Cc3cnc[nH]3)NC(=O)[C@@H](Cc3ccccc3)NC(=O)[C@H]([C@@H](C)CC)NC(=O)[C@@H](CCCN)NC2=O)[C@@H](C)CC)CS1 [Bacitracin] ({Ileψ(thiazoline)Cys}-L[dE]IK[dOrn]I[dF]H[dD]N; lactam 4-C)
NRRL 15878; 10 units
  Resistance to Antibiotics: +
A. macra; 10 units
  Resistance to Antibiotics: -

## CC(=O)OCC1=C(C(=O)O)N2C(=O)[C@@H](NC(=O)Cc3cccs3)[C@H]2SC1 [Cephalothin]
A. macra; 30 μg
  Resistance to Antibiotics: +

## CC1(C)S[C@@H]2[C@H](NC(=O)Cc3ccccc3)C(=O)N2[C@H]1C(=O)O [Pencillin G]
NRRL 15878; 10 units
  Resistance to Antibiotics: +
A. macra; 10 units
  Resistance to Antibiotics: +

## CO[C@H]1/C=C/O[C@@]2(C)Oc3c(C)c(O)c4c(O)c(c(/C=N/N5CCN(C)CC5)c(O)c4c3C2=O)NC(=O)/C(C)=C\C=C\[C@H](C)[C@H](O)[C@@H](C)[C@@H](O)[C@@H](C)[C@H](OC(C)=O)[C@@H]1C [Rifampin]
A. macra; 5 μg
  Resistance to Antibiotics: +

## CN[C@@H]1[C@H](O[C@H]2[C@H](O[C@H]3[C@H](O)[C@@H](O)[C@H](N=C(N)N)[C@@H](O)[C@@H]3N=C(N)N)O[C@@H](C)[C@]2(O)C=O)O[C@@H](CO)[C@H](O)[C@H]1O [Streptocmycin]
NRRL 15878; 10 μg
  Resistance to Antibiotics: -
A. macra; 10 μg
  Resistance to Antibiotics: +

## CN[C@H](CC(C)C)C(=O)N[C@H]1C(=O)N[C@@H](CC(N)=O)C(=O)N[C@H]2C(=O)N[C@H]3C(=O)N[C@H](C(=O)N[C@H](C(=O)O)c4cc(O)cc(O)c4-c4cc3ccc4O)[C@H](O)c3ccc(c(Cl)c3)Oc3cc2cc(c3O[C@@H]2O[C@H](CO)[C@@H](O)[C@H](O)[C@H]2O[C@H]2C[C@](C)(N)[C@H](O)[C@H](C)O2)Oc2ccc(cc2Cl)[C@H]1O [Vancomycin]
NRRL 15878; 30 μg
  Resistance to Antibiotics: -
A. macra; 30 μg
  Resistance to Antibiotics: -

## Gentamicin
NRRL 15878; 10 μg
  Resistance to Antibiotics: -
A. macra; 10 μg
  Resistance to Antibiotics: -

## Tetracycline
NRRL 15878; 30 μg
  Resistance to Antibiotics: -
A. macra; 30 μg
  Resistance to Antibiotics: -
